Data as given in ChEMBL document CHEMBL4602709 (ACS Med Chem Lett, 2020).

What was measured:
[1] = biological target: Cytochrome P450 3A4 (Homo sapiens, UniProt P08684); test: Inhibition of human recombinant CYP3A4 expressed in insect cell microsomes in presence of NADPH by fluorescence assay; assay type: ADME
[2] = biological target: Voltage-gated inwardly rectifying potassium channel KCNH2 (Homo sapiens, UniProt Q12809); test: Inhibition of human ERG incubated for 4 hrs by competitive fluorescence tracer binding based assay
[3] = biological target: Tyrosine-protein kinase ABL1 (Homo sapiens, UniProt P00519); test: Inhibition of human ABL1 assessed as residual activity using EAIYAAPFAKKK as substrate by [gamma-33P]-ATP assay
[4] = Metabolic stability in human liver microsomes assessed as half life at 3 uM measured up to 30 mins in presence of NADPH by […] analysis; assay type: ADME, Microsome
[5] = Metabolic stability in mouse liver microsomes assessed as half life at 3 uM measured up to 30 mins in presence of NADPH by […] analysis; assay type: ADME, Microsome
[6] = biological target: T1, Discoidin domain-containing receptor 2 (Homo sapiens) (UniProt Q16832); test: Inhibition of DDR2 (unknown origin) assessed as residual activity at 10 uM incubated for 5 mins in presence of [gamma-33ATP] by scintillation counting based radiometry assay relative to control
T1 sequence (whole entry): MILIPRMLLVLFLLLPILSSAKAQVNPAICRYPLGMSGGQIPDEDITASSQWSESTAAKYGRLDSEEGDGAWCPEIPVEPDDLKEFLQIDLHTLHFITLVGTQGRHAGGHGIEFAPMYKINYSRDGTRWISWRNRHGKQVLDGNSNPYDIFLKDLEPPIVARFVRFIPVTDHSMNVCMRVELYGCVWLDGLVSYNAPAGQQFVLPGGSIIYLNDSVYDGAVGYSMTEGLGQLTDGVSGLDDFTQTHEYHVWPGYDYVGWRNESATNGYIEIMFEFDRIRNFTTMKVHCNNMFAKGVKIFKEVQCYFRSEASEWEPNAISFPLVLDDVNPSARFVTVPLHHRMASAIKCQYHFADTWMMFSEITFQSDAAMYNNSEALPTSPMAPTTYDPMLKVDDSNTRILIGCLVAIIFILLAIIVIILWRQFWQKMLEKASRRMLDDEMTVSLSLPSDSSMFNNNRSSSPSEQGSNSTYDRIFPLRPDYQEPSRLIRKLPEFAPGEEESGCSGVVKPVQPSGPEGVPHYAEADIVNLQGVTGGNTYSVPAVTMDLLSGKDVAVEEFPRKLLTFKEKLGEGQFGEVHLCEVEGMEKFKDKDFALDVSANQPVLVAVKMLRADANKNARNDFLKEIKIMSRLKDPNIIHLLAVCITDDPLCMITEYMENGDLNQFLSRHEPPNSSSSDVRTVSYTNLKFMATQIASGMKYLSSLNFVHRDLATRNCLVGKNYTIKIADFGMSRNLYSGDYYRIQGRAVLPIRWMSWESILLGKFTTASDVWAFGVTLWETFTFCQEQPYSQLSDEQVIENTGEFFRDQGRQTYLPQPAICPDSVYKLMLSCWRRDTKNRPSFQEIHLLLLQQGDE

[7] = biological target: Proto-oncogene tyrosine-protein kinase Src (Homo sapiens, UniProt P12931); test: Inhibition of SRC (unknown origin) assessed as residual activity at 10 uM incubated for 5 mins in presence of [gamma-33ATP] by scintillation counting based radiometry assay relative to control
[8] = biological target: T2, Ephrin type-B receptor 2 (Homo sapiens) (UniProt P29323); test: Inhibition of EPHB2 (unknown origin) assessed as residual activity at 10 uM incubated for 5 mins in presence of [gamma-33ATP] by scintillation counting based radiometry assay relative to control
T2 sequence (whole entry): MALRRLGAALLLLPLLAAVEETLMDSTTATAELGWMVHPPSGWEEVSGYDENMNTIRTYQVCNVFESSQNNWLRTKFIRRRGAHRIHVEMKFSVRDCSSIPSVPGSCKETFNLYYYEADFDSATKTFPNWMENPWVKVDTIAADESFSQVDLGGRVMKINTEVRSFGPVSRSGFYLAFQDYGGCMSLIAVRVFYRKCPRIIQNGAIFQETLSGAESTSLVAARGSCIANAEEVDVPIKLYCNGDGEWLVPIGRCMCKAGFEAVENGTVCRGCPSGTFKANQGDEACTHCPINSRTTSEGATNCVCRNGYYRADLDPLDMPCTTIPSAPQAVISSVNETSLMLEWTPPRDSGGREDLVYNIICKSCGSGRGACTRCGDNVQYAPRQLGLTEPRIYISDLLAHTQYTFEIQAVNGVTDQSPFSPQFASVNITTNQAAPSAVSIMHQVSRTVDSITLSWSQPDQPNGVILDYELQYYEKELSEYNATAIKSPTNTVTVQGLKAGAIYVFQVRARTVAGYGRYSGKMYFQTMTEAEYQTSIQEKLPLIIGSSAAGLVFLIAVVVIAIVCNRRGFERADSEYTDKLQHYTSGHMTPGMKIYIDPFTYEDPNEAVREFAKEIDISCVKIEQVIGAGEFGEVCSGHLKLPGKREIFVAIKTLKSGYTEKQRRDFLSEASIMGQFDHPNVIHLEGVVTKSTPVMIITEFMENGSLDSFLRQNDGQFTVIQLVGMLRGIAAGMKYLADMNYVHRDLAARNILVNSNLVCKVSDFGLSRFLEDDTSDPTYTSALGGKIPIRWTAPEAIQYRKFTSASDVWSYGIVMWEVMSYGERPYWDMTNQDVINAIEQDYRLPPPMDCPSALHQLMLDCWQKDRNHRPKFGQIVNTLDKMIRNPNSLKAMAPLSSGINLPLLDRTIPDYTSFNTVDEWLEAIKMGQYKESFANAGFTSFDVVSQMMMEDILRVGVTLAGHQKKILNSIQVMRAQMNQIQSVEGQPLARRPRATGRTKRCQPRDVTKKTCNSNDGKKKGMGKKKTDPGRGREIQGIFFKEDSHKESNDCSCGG

[9] = biological target: Tyrosine-protein kinase Lck (Homo sapiens, UniProt P06239); test: Inhibition of LCK (unknown origin) assessed as residual activity at 10 uM incubated for 5 mins in presence of [gamma-33ATP] by scintillation counting based radiometry assay relative to control
[10] = biological target: Serine/threonine-protein kinase Nek6 (Homo sapiens, UniProt Q9HC98); test: Inhibition of NEK6 (unknown origin) assessed as residual activity at 10 uM incubated for 5 mins in presence of [gamma-33ATP] by scintillation counting based radiometry assay relative to control
[11] = species: Homo sapiens; test: Inhibition of VEGFR (unknown origin) assessed as residual activity at 10 uM incubated for 5 mins in presence of [gamma-33ATP] by scintillation counting based radiometry assay relative to control
[12] = biological target: T3, Mitogen-activated protein kinase kinase kinase kinase 3 (Homo sapiens) (UniProt Q8IVH8); test: Inhibition of MAP4K3 (unknown origin) assessed as residual activity at 10 uM incubated for 5 mins in presence of [gamma-33ATP] by scintillation counting based radiometry assay relative to control
T3 sequence (whole entry): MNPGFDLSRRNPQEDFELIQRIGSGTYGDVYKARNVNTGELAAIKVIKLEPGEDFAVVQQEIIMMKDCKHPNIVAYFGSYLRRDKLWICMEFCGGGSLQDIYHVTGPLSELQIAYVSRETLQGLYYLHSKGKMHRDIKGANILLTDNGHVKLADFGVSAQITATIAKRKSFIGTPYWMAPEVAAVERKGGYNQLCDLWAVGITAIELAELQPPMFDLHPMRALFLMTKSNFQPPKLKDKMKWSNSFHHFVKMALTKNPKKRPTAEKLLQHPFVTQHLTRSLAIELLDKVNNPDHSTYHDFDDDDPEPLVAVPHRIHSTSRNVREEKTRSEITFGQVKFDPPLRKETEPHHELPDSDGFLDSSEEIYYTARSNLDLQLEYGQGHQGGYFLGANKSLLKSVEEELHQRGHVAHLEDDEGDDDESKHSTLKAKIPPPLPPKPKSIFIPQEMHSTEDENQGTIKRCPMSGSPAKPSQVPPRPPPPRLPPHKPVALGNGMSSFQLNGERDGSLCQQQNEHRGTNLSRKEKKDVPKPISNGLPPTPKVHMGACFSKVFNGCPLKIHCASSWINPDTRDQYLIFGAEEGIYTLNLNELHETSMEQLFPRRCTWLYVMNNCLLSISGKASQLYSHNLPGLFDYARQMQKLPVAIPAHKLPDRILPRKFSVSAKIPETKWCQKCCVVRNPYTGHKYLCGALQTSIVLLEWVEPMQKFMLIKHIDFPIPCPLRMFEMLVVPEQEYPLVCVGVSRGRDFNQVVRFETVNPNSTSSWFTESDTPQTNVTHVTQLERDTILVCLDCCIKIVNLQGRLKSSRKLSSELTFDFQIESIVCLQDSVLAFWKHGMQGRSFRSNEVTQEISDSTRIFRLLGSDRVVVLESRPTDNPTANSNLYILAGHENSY

Voltage-gated inwardly rectifying potassium channel KCNH2, sequence (Q12809 whole entry): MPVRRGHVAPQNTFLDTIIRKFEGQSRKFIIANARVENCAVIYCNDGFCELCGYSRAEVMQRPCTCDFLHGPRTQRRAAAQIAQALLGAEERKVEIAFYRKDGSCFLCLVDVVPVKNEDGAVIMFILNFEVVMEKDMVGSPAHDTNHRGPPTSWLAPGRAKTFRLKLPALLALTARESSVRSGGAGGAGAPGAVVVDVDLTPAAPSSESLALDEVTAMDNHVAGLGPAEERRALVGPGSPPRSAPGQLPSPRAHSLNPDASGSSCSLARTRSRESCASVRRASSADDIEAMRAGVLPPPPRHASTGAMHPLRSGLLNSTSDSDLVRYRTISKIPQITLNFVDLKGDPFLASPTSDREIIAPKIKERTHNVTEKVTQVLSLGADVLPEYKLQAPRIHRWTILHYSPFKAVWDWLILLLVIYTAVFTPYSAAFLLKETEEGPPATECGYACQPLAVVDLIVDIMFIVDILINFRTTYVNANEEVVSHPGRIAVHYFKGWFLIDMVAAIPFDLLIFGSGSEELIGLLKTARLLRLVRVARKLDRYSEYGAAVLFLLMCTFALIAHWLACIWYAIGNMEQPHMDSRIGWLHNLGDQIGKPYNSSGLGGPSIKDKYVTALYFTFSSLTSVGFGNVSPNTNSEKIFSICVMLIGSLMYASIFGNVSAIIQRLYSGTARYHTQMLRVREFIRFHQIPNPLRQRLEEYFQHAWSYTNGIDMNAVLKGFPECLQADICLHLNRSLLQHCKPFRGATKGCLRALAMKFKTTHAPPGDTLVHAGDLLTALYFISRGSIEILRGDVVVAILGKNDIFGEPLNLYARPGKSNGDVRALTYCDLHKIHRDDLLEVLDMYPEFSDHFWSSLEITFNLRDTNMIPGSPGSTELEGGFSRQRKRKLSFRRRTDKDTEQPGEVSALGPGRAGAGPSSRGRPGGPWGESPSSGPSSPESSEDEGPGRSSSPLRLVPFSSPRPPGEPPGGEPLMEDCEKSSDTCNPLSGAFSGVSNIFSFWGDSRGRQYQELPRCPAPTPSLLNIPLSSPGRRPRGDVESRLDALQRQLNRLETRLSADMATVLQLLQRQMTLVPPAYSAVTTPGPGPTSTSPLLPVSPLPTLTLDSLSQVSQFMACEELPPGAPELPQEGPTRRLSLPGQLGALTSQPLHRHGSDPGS
Tyrosine-protein kinase ABL1, sequence (P00519 whole entry): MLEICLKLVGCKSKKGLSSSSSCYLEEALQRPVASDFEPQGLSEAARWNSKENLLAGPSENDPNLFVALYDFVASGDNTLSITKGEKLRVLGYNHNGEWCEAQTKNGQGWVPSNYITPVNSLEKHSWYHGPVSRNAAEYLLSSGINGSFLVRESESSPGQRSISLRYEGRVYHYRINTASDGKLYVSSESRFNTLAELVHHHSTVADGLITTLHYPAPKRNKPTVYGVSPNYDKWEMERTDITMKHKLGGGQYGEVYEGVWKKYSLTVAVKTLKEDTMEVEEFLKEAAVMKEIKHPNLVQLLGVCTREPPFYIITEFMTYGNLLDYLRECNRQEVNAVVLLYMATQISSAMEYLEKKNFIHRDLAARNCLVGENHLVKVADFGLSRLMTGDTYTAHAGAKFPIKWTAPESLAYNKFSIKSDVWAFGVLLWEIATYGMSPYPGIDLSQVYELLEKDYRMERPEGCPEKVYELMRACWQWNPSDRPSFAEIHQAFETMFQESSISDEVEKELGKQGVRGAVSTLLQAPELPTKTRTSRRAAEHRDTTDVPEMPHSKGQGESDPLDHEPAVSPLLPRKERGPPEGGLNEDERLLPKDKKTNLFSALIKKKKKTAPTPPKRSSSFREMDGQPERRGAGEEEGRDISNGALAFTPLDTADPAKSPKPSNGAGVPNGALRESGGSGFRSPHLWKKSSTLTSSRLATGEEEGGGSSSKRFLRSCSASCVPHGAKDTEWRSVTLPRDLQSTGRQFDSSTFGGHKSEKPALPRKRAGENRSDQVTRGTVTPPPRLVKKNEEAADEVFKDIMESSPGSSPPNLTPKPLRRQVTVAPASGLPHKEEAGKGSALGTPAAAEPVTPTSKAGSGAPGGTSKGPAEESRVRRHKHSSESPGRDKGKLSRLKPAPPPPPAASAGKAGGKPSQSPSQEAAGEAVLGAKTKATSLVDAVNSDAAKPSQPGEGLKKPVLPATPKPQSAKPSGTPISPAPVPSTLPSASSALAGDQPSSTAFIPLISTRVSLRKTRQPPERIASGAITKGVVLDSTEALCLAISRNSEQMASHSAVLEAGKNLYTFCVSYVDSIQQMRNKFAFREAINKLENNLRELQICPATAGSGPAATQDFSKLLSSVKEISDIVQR
Cytochrome P450 3A4, sequence (P08684 whole entry): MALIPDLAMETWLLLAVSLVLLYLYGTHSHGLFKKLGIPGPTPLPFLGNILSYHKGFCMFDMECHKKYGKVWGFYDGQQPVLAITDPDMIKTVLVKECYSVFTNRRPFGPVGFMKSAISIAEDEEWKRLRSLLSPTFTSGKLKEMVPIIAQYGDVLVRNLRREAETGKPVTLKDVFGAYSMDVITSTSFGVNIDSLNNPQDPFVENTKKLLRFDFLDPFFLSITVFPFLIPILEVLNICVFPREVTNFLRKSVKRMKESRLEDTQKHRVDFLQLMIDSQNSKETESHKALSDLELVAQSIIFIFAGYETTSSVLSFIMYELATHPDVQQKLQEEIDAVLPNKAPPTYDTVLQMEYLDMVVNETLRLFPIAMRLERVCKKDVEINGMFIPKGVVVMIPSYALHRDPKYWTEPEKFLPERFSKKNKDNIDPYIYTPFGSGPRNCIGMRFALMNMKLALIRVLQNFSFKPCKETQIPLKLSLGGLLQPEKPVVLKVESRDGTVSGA
Tyrosine-protein kinase Lck, sequence (P06239 2-509 limits assumed): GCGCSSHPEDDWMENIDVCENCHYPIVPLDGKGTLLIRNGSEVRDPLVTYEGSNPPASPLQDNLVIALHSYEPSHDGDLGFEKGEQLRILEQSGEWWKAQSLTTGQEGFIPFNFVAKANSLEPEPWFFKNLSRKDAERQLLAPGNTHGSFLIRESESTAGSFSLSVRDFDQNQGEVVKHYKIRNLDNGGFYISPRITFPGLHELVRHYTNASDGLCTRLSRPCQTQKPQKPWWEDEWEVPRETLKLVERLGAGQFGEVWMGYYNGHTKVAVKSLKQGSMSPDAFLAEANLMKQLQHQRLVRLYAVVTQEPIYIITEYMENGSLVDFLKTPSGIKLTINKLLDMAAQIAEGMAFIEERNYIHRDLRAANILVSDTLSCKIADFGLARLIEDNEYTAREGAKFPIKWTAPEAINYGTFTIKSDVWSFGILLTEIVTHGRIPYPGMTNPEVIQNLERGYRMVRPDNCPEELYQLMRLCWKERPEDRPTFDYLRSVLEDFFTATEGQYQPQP
Serine/threonine-protein kinase Nek6, sequence (Q9HC98 whole entry): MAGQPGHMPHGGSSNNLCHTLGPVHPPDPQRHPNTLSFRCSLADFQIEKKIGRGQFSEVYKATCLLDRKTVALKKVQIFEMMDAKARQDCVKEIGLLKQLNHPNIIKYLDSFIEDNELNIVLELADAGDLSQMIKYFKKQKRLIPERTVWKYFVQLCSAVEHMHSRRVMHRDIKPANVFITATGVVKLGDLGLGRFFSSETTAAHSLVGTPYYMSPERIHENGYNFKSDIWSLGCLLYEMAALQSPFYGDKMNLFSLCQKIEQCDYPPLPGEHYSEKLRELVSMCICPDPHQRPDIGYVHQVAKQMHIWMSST
Proto-oncogene tyrosine-protein kinase Src, sequence (P12931 2-536 limits assumed): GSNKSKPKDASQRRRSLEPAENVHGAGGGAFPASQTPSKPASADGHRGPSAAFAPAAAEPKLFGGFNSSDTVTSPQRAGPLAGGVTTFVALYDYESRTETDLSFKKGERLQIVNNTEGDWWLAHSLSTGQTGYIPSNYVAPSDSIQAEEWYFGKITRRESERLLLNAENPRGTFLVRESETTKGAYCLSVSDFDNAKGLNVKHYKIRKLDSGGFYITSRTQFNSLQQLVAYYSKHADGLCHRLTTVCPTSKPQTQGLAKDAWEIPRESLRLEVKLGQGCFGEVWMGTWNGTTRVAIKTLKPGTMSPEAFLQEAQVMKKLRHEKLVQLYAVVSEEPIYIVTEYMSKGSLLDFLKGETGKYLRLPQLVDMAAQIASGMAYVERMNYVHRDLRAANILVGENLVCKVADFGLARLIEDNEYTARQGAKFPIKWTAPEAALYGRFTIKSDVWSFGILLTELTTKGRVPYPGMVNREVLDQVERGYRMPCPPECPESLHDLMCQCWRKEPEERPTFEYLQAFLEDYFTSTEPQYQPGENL

`COCCN1CCN(Cc2ccc(NC(=O)c3ccc(C)c(C#Cc4cnc5cccnn45)c3)cc2C2CC2)CC1` gave an IC50 [1] of 13500 nM and an IC50 [2] of 80 nM.
For `Cc1ccc(C(=O)Nc2ccc(CN3CCN(CCO)CC3)c(Cl)c2)cc1C#Cc1cnc2cccnn12`, the IC50 [3] was 0.39 nM, the IC50 [1] was 13400 nM and the IC50 [2] was 100 nM.
For `Cc1ccc(C(=O)Nc2ccc(CN3Cc4ccc(O)cc4C3)c(Cl)c2)cc1C#Cc1cnc2cccnn12`, the IC50 [3] was > 30 nM, the half-life at 3 µM [4] was 2.63 h and the half-life at 3 µM [5] was 0.441 h.
`Cc1ccc(C(=O)Nc2ccc(CN3CCN(CCO)CC3)c(C3CC3)c2)cc1C#Cc1cnc2cccnn12` showed an IC50 [3] of 0.3 nM and an IC50 [2] of 340 nM.
Compound `Cc1ccc(C(=O)Nc2ccc(CN3CCN(C)CC3)c(C(F)(F)F)c2)cc1C#Cc1cnc2cccnn12` [PONATINIB] has a half-life at 3 µM [4] of 3.04 h, a half-life at 3 µM [5] of 0.532 h and an Activity [6] of 3%. The Activity [7] was 11%, the Activity [8] was 2% and the Activity [9] was 29%. For the same compound, the Activity [10] was 52%, the Activity [11] was 28% and the Activity [12] was 2%.
